Laboratory results from US20250214991A1 (Oncopia Therapeutics, Inc. d/b/a/ SK Life Science Labs, priority 2022, published 2025).

Key:
IKZF1 = IKZF1 (Homo sapiens (Human), UniProt Q13422+Q96SW2); test: In vitro IKZF1 HiBit Assay (HEK293T Flp-in-HiBiT-IKZF1 stable cell line); format: cell-based; conditions: HEK293T Flp-in-HiBiT-IKZF1 stable cell line, 6 hrs incubation; for DC50: read-out: IKZF1 HiBit DC50; for Dmax: HEK-293T, read-out: IKZF1 HiBit Dmax (%)
Summary of the method: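 HEK293T Flp-in cells carrying N-terminal HiBiT-tagged IKZF1 were exposed to compound (0.1% DMSO) for 6 h at 3000 cells/well. HiBiT luminescence was read after lytic LgBiT detection. DC50 and Dmax were taken from DMSO-normalized dose-response curves.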

IKZF2 = IKZF2 (Homo sapiens (Human), UniProt Q96SW2+Q9UKS7); test: In vitro IKZF2 HiBit Assay (HEK293T Flp-in-HiBiT cells); format: cell-based; conditions: HEK293T Flp-in-HiBiT cells, 6 hrs incubation; for DC50: read-out: IKZF2 HiBit DC50; for Dmax: HEK-293T, read-out: IKZF2 HiBit Dmax (%)
Summary of the method: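 HEK293T Flp-in cells carrying an endogenous N-terminal HiBiT tag on IKZF2 were exposed to compound for 6 h at 0.1% DMSO. The dilution series was 11 doses at 3-fold, diluted from 1 mM. Nano-Glo HiBiT lytic luminescence, normalized to DMSO, gave DC50 for 50% degradation and Dmax across the concentration range, both reported in letter bins.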

CRBN/DDB1 = CRBN/DDB1 (Homo sapiens (Human), UniProt Q96SW2); test: IC50 measurements for binding to CRBN/DDB1 (HTRF); conditions: His tagged CRBN+DDB, Cy5-labeled Thalidomide probe, one hour
Procedure: In vitro Assay: IC50 Measurements for binding to CRBN/DDB1 (Table E1)
The binding potency was determined using HTRF assay technology (Perkin Elmer). Compounds were serially diluted in DMSO and 0.2 μL volume was transferred to white 384-well plate. The reaction was conducted in total volume of 20 μL with addition of 2 nM His tagged CRBN+DDB−DLS7+CXU4 (Wuxi, catalogue #RP210521GA) to compounds followed by addition of 60 nM Fluorescent probe Cy5-labeled Thalidomide (Tenova Pharma, catalogue #T52461), and 0.4 nM of MAb Anti-6HIS Tb cryptate Gold (Cisbio, catalogue #61HI2TLA in the assay buffer (50 mM HEPES pH 7.5, 1 mM TCEP, 0.01% Brij-35, 50 mM NaCl, and 0.1% BSA). After one hour incubation at room temperature, the HTRF signals were read on Envision reader (Perkin Elemer). Data was analyzed using XLfit using four parameters dose response curve to determine IC50s. A: IC50<0.1 μM; B: 0.1 μM<IC50<[…]; C: 0.5 μM<IC50<1 μM; D: 1 μM<IC50<5 μM; E: 5 μM<IC50<10 μM

Sequence of IKZF2 (Q9UKS7 whole entry): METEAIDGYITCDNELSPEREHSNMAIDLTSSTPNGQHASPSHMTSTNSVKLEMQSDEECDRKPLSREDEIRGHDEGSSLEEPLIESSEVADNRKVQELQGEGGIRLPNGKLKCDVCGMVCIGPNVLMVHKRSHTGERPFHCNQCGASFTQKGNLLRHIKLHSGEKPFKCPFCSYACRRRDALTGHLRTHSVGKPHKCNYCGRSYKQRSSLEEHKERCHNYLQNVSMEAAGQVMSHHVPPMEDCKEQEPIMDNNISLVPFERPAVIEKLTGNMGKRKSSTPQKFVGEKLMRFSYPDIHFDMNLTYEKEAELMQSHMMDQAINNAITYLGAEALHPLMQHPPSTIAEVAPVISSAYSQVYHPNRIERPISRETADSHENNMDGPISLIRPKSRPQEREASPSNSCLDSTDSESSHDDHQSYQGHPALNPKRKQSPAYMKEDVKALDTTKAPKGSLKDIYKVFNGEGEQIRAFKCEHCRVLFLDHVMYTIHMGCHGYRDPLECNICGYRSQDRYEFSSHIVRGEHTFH
Sequence of IKZF2 (Q96SW2 whole entry): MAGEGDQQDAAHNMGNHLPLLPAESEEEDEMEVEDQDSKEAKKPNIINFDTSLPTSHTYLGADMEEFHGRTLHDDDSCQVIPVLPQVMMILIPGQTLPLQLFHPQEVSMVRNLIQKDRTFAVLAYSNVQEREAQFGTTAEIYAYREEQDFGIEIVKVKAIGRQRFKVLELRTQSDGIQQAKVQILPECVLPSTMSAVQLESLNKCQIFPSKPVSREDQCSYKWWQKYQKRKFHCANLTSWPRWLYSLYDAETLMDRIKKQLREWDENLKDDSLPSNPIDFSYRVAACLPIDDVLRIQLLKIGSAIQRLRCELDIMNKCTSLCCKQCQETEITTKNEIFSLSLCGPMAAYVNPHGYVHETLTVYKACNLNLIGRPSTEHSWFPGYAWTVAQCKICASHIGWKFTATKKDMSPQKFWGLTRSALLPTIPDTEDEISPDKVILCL
Sequence of IKZF2 (Q16531 2-1140 partner): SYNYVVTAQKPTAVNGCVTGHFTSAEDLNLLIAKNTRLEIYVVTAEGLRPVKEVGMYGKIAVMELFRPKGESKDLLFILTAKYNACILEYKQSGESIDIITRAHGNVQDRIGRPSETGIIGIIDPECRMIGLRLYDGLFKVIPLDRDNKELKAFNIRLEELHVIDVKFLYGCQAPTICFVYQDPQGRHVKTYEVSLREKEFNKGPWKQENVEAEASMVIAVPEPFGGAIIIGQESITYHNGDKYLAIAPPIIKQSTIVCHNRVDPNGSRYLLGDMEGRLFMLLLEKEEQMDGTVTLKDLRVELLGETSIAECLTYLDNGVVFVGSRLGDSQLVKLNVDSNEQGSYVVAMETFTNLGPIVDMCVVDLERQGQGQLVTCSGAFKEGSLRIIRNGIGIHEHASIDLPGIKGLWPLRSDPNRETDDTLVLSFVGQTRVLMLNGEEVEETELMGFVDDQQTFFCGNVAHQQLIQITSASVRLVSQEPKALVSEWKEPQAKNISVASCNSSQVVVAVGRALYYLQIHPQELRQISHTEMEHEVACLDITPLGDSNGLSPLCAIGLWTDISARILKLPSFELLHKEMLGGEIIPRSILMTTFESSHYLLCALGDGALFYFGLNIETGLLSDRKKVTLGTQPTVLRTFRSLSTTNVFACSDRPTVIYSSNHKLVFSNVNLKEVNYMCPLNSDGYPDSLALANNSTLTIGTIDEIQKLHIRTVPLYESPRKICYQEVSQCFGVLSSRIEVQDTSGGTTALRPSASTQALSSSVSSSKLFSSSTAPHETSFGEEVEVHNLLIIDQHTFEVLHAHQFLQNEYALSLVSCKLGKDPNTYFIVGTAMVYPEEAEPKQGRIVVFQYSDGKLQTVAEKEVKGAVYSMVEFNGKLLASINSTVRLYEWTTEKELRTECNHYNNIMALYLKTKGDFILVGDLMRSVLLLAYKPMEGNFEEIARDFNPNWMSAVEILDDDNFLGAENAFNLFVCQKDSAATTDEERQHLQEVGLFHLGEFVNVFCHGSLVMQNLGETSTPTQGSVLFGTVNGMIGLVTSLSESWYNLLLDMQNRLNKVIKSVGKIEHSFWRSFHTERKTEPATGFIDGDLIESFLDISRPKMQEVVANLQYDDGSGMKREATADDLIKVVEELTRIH
Sequence of IKZF1 (Q13422 whole entry): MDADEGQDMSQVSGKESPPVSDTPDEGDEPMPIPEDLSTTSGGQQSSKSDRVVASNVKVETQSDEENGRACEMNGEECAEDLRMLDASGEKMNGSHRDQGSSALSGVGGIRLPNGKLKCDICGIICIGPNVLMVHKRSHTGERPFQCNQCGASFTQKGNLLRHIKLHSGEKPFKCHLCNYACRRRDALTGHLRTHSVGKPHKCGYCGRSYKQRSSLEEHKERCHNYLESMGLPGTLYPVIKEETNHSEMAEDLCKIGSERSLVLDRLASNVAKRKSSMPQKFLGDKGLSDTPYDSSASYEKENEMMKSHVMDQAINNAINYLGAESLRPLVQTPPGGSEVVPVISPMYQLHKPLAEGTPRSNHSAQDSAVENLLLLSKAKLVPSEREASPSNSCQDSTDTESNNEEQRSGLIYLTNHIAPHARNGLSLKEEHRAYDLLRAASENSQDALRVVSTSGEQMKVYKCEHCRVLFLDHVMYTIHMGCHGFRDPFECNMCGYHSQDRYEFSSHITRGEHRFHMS
Sequence of IKZF1 (Q96SW2 whole entry): as the sequence (Q96SW2 whole entry) above
Sequence of IKZF1 (Q16531 2-1140 partner): as the sequence (Q16531 2-1140 partner) above
Sequence of CRBN/DDB1 (Q96SW2 whole entry, species assumed): as the sequence (Q96SW2 whole entry) above
Sequence of CRBN/DDB1 (Q16531 whole entry partner, species assumed): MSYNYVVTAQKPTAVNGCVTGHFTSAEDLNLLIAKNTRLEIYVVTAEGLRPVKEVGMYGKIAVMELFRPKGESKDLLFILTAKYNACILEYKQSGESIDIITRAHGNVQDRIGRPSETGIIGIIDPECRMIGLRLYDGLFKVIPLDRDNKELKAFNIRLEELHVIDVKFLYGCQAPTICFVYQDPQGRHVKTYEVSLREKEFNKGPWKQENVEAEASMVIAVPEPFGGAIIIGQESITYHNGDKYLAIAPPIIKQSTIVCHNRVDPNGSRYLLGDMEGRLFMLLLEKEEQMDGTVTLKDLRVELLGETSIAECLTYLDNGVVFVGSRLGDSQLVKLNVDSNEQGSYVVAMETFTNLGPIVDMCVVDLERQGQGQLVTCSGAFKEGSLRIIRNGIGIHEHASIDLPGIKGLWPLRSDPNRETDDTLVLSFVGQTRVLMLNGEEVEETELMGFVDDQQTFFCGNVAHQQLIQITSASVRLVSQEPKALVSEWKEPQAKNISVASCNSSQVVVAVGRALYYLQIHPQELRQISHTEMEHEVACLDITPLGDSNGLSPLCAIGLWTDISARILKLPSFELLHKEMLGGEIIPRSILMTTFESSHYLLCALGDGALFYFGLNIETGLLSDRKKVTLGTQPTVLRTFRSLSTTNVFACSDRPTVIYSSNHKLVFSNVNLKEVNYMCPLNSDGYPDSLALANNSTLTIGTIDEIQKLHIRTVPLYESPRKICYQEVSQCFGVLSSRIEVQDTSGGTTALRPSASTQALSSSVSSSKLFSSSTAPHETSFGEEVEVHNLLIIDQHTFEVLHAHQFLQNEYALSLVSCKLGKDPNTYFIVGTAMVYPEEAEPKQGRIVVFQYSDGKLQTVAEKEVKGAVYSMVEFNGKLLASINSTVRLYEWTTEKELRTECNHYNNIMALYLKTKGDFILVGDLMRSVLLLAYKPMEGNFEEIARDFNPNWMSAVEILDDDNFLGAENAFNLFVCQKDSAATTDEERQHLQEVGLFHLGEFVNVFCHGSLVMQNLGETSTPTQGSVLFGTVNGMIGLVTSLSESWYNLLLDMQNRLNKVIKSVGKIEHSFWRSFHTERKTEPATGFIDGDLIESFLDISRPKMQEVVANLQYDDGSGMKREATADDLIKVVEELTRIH

Compound | DC50 (IKZF1) [nM] | Dmax (IKZF1) [%] | DC50 (IKZF2) [nM] | Dmax (IKZF2) [%] | IC50 (CRBN/DDB1) [nM]
N#CC1CCN(Cc2cc(-c3ccc4c(c3)CN(C3CCC(=O)NC3=O)C4=O)nc3c2ccn3C2COC2)CC1 (centres unmarked) [Example 192, 1-((6-(2-(2,6-dioxopiperidin-3-yl)-1-oxoisoindolin-5-yl)-1-(oxetan-3-yl)-1H-pyrrolo[2,3-b]pyridin-4-yl)methyl) piperidine-4-carbonitrile] | > 10000 | < 20 | 10 to 100 | 60 to 80 | 1000 to 5000
CN(C)C(=O)Cn1ccc2c(CN3CCCC3)cc(-c3ccc4c(c3)CN(C3CCC(=O)NC3=O)C4=O)nc21 (centres unmarked) [Example 149, 2-(6-(2-(2,6-dioxopiperidin-3-yl)-1-oxoisoindolin-5-yl)-4-(pyrrolidin-1-ylmethyl)-1H-pyrrolo[2,3-b]pyridin-1-yl)-N,N-dimethylacetamide] | > 10000 | < 20 | 100 to 1000 | 20 to 40 | 1000 to 5000
O=C1CCC(N2Cc3cc(-c4cc(CN5CCCC5)c5ccn(C6CCCCC6)c5n4)ccc3C2=O)C(=O)N1 (centres unmarked) [Example 166, 3-(5-(1-cyclohexyl-4-(pyrrolidin-1-ylmethyl)-1H-pyrrolo[2,3-b]pyridin-6-yl)-1-oxoisoindolin-2-yl) piperidine-2,6-dione] | > 10000 | < 20 | 1 to 10 | 40 to 60 | 100 to 500
O=C1CCC(N2Cc3cc(-c4cc(CN5CCC(F)C5)c5ccn(C6CC6)c5n4)ccc3C2=O)C(=O)N1 (centres unmarked) [Example 141, 3-(5-(1-cyclopropyl-4-((3-fluoropyrrolidin-1-yl)methyl)-1H-pyrrolo[2,3-b]pyridin-6-yl)-1-oxoisoindolin-2-yl) piperidine-2,6-dione] | > 10000 | < 20 | 1 to 10 | > 80 | 1000 to 5000
COCC1CCCN1Cc1cc(-c2ccc3c(c2)CN(C2CCC(=O)NC2=O)C3=O)nc2c1ccn2C (centres unmarked) [Example 106, 3-(5-(4-((2-(methoxymethyl)pyrrolidin-1-yl)methyl)-1-methyl-1H-pyrrolo[2,3-b]pyridin-6-yl)-1-oxoisoindolin-2-yl) piperidine-2,6-dione] | > 10000 | < 20 | 1 to 10 | > 80 | 100 to 500
O=C1CCC(N2Cc3cc(-c4cc(CN5CCC(F)C5)c5cc[nH]c5n4)ccc3C2=O)C(=O)N1 (centres unmarked) [Example 127, 3-(5-(4-((3-fluoropyrrolidin-1-yl)methyl)-1H-pyrrolo[2,3-b]pyridin-6-yl)-1-oxoisoindolin-2-yl) piperidine-2,6-dione] | 100 to 1000 | 20 to 40 | 1 to 10 | > 80 | 100 to 500
Nc1n[nH]c2c(CN3CCC(F)C3)cc(-c3ccc4c(c3)CN(C3CCC(=O)NC3=O)C4=O)nc12 (centres unmarked) [Example 201, 3-(5-(3-amino-7-((3-fluoropyrrolidin-1-yl)methyl)-1H-pyrazolo[4,3-b]pyridin-5-yl)-1-oxoisoindolin-2-yl) piperidine-2,6-dione] | 1000 to 10000 | 20 to 40 | 10 to 100 | 60 to 80 | 500 to 1000
O=C1CCC(N2Cc3cc(-c4cc(CN5CCC5)c5cc[nH]c5n4)ccc3C2=O)C(=O)N1 (centres unmarked) [Example 84, 3-(5-(4-(azetidin-1-ylmethyl)-1H-pyrrolo[2,3-b]pyridin-6-yl)-1-oxoisoindolin-2-yl) piperidine-2,6-dione] | 10 to 100 | 20 to 40 | 1 to 10 | > 80 | < 100
Cn1ccc2c(N3CCCC3)cc(-c3ccc4c(c3)CN(C3CCC(=O)NC3=O)C4=O)nc21 (centres unmarked) [Example 114, 3-(5-(1-methyl-4-(pyrrolidin-1-yl)-1H-pyrrolo[2,3-b]pyridin-6-yl)-1-oxoisoindolin-2-yl) piperidine-2,6-dione] | > 10000 | < 20 | 10 to 100 | 20 to 40 | 1000 to 5000
Cn1ccc2c(CN3CC4(COC4)C3)cc(-c3ccc4c(c3)CN(C3CCC(=O)NC3=O)C4=O)nc21 (centres unmarked) [Example 91, 3-(5-(4-((2-oxa-6-azaspiro[3.3]heptan-6-yl)methyl)-1-methyl-1H-pyrrolo[2,3-b]pyridin-6-yl)-1-oxoisoindolin-2-yl) piperidine-2,6-dione] | 10 to 100 | 20 to 40 | 1 to 10 | > 80 | 500 to 1000
Cn1ccc2c(CN3CC(O)C3)cc(-c3ccc4c(c3)CN(C3CCC(=O)NC3=O)C4=O)nc21 (centres unmarked) [Example 306, 3-(5-(4-((3-hydroxyazetidin-1-yl)methyl)-1-methyl-1H-pyrrolo[2,3-b]pyridin-6-yl)-1-oxoisoindolin-2-yl) piperidine-2,6-dione] | 100 to 1000 | 20 to 40 | 10 to 100 | > 80 | 100 to 500
N#CCn1ccc2c(CN3CCCC3)cc(-c3ccc4c(c3)CN(C3CCC(=O)NC3=O)C4=O)nc21 (centres unmarked) [Example 133, 2-(6-(2-(2,6-dioxopiperidin-3-yl)-1-oxoisoindolin-5-yl)-4-(pyrrolidin-1-ylmethyl)-1H-pyrrolo[2,3-b]pyridin-1-yl) acetonitrile] | > 10000 | < 20 | 1 to 10 | 60 to 80 | 100 to 500
CC(C)n1ccc2nc(-c3ccc4c(c3)CN(C3CCC(=O)NC3=O)C4=O)cc(CN3CCCC3)c21 (centres unmarked) [Example 172, 3-(5-(1-isopropyl-7-(pyrrolidin-1-ylmethyl)-1H-pyrrolo[3,2-b]pyridin-5-yl)-1-oxoisoindolin-2-yl) piperidine-2,6-dione] | 100 to 1000 | 20 to 40 | 10 to 100 | 60 to 80 | 1000 to 5000
O=C1CCC(N2Cc3cc(-c4cc(CN5CC6COCC(C6)C5)c5ccn(C6COC6)c5n4)ccc3C2=O)C(=O)N1 (centres unmarked) [Example 191, 3-(5-(4-((3-oxa-7-azabicyclo[3.3.1]nonan-7-yl)methyl)-1-(oxetan-3-yl)-1H-pyrrolo[2,3-b]pyridin-6-yl)-1-oxoisoindolin-2-yl) piperidine-2,6-dione] | > 10000 | < 20 | 1 to 10 | 60 to 80 | 1000 to 5000
CC(c1cc(-c2ccc3c(c2)CN(C2CCC(=O)NC2=O)C3=O)nc2c1ccn2C)N1CCCC1 (centres unmarked) [Example 87, 3-(5-(1-methyl-4-(1-(pyrrolidin-1-yl)ethyl)-1H-pyrrolo[2,3-b]pyridin-6-yl)-1-oxoisoindolin-2-yl) piperidine-2,6-dione] | > 10000 | < 20 | 100 to 1000 | < 20 | 100 to 500
Cn1ncc2c(CN3CCCC3)cc(-c3ccc4c(c3)CN(C3CCC(=O)NC3=O)C4=O)nc21 (centres unmarked) [Example 313, 3-(5-(1-methyl-4-(pyrrolidin-1-ylmethyl)-1H-pyrazolo[3,4-b]pyridin-6-yl)-1-oxoisoindolin-2-yl) piperidine-2,6-dione] | 10 to 100 | 20 to 40 | < 1 | > 80 | 1000 to 5000
Cn1ccc2c(CN3CCC4(CCC4)CC3)cc(-c3ccc4c(c3)CN(C3CCC(=O)NC3=O)C4=O)nc21 (centres unmarked) [Example 69, 3-(5-(4-((7-azaspiro[3.5]nonan-7-yl)methyl)-1-methyl-1H-pyrrolo[2,3-b]pyridin-6-yl)-1-oxoisoindolin-2-yl) piperidine-2,6-dione] | > 10000 | 20 to 40 | < 1 | > 80 | 100 to 500
Cn1ccc2c(CN3CCN(S(C)(=O)=O)CC3)cc(-c3ccc4c(c3)CN(C3CCC(=O)NC3=O)C4=O)nc21 (centres unmarked) [Example 61, 3-(5-(1-methyl-4-((4-(methylsulfonyl)piperazin-1-yl)methyl)-1H-pyrrolo[2,3-b]pyridin-6-yl)-1-oxoisoindolin-2-yl) piperidine-2,6-dione] | > 10000 | < 20 | 10 to 100 | 40 to 60 | 500 to 1000
Nc1n[nH]c2c(CN3CC(F)C3)cc(-c3ccc4c(c3)CN(C3CCC(=O)NC3=O)C4=O)nc12 (centres unmarked) [Example 207, 3-(5-(3-amino-7-((3-fluoroazetidin-1-yl)methyl)-1H-pyrazolo[4,3-b]pyridin-5-yl)-1-oxoisoindolin-2-yl) piperidine-2,6-dione] | > 10000 | < 20 | 10 to 100 | 60 to 80 | 100 to 500
